The values below come from ChEMBL document CHEMBL1143289, “Potent and selective adenosine A2A receptor antagonists: 1,2,4-Triazolo[1,5-c]pyrimidines” (Bioorg Med Chem Lett, 2009).

The target in data set [1] is Adenosine receptor A2a (Homo sapiens, UniProt P29274). The data set is described as follows: Displacement of [3H]SCH58261 from human adenosine A2A receptor expressed in HEK293 cells. It counts as cell-based.
The species entered for data set [2] is Homo sapiens. The data set is described as follows: Selectivity for human adenosine A1 receptor over human adenosine A2A receptor.
Data set [3] in a line: AUC in rat plasma at 3 mg/kg, po. It counts as ADME, organism-based. The arrangement: dose 3 mg/kg, route oral.
In data set [4] the test system is Rattus norvegicus. The data set is described as follows: Inhibition of haloperidol-induced catalepsy in rat at 3 mg/kg, po after 4 hrs. It counts as functional.
Data set [5] relates to Rattus norvegicus. The data set is described as follows: Inhibition of haloperidol-induced catalepsy in rat at 1 mg/kg, po after 1 hr. In kind it is functional.
The test system of data set [6] is Rattus norvegicus. The data set is described as follows: Inhibition of haloperidol-induced catalepsy in rat at 1 mg/kg, po after 4 hrs. In kind it is functional.
Data set [7] deals with Rattus norvegicus. The data set is described as follows: Inhibition of haloperidol-induced catalepsy in rat at 3 mg/kg, po after 1 hr. It counts as functional.
The subject of data set [8] is Rattus norvegicus. The data set is described as follows: Inhibition of haloperidol-induced catalepsy in rat at 0.3 mg/kg, po after 1 hr. More on the design: scale not given: the % may be the effect or the level left.
Data set [9] has as its system Rattus norvegicus. The data set is described as follows: Inhibition of haloperidol-induced catalepsy in rat at 0.3 mg/kg, po after 1 hr. In kind it is functional. The note with it: read-out: INH.
Data set [10] has as its system Rattus norvegicus. The data set is described as follows: Inhibition of haloperidol-induced catalepsy in rat at 0.3 mg/kg, po after 4 hrs. It counts as functional. Conditions: read-out: INH.
In data set [11] the test system is Rattus norvegicus. The data set is described as follows: Inhibition of haloperidol-induced catalepsy in rat at 0.1 mg/kg, po after 1 hr. It counts as functional. Conditions: read-out: INH.
Data set [12] concerns Rattus norvegicus. The data set is described as follows: Inhibition of haloperidol-induced catalepsy in rat at 0.1 mg/kg, po after 4 hrs. It counts as functional.

Structures are written as SMILES.

Adenosine receptor A2a, sequence (P29274 whole entry): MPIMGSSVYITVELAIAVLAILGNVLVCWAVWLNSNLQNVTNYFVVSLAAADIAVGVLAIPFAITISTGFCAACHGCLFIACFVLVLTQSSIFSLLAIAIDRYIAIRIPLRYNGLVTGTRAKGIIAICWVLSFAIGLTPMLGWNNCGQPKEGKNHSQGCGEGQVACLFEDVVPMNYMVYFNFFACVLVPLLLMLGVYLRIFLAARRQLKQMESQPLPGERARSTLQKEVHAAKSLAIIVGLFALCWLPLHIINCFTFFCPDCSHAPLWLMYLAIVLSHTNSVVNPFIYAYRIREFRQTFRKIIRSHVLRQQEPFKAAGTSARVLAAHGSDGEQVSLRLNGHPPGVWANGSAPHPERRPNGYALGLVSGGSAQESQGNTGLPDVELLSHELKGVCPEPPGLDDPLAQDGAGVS

Regarding `COCCOc1ccc(N2CCN(CCN(C)c3cc4nc(-c5ccccc5)nn4c(N)n3)CC2)cc1`, in data set [1], the inhibition constant (Ki) is 25 nM. Further, the Ratio in data set [2] came to 56.

As for `COCCOc1ccc(N2CCN(CCSc3cc4nc(-c5ccco5)nn4c(N)n3)CC2)cc1`, affinity in [1] was put at a Ki of 1.5 nM. Further, in [2], the Ratio stood at 965. In addition, in [3], the AUC turned out to be 910 ng·h/mL. The inhibition in vivo at 3 mg/kg in data set [4] and in data set [7] was 65% in each case. Moreover, the inhibition in vivo at 1 mg/kg worked out at 50% in data set [5] and 15% in data set [6].

Regarding `CN(CCN1CCN(c2ccc(F)cc2F)CC1)c1cc2nc(-c3ccco3)nn2c(N)n1`, the Ki in [1] stood at 1 nM. Besides, in data set [2], the Ratio was found to be 1580. For the same compound, the exposure (AUC) in [3] was 53 ng·h/mL. Also, the inhibition in vivo at 3 mg/kg in data set [4] stood at 35%; in [7] it was 75%. In addition, the inhibition in vivo at 1 mg/kg in data set [5] amounted to 50%; in [6] it was 30%.

For the compound `COCCOc1ccc(N2CCN(CCN(CC3CC3)c3cc4nc(-c5ccco5)nn4c(N)n3)CC2)cc1`, the affinity in data set [1], expressed as Ki, was 0.8 nM. Moreover, the Ratio in [2] was determined as 234. The AUC in data set [3] came to 245 ng·h/mL. For the same compound, the inhibition in vivo at 3 mg/kg in data set [4] stood at 77%; in data set [7], 65%. Moreover, the values for the inhibition in vivo at 1 mg/kg in [5] and in data set [6] were 7% and 32%, respectively.

Regarding `COc1ccc(CCNc2cc3nc(-c4ccco4)nn3c(N)n2)cc1`, the affinity in data set [1], expressed as Ki, was 5.8 nM. Besides, the Ratio in data set [2] amounted to 20.

`CN(CCN1CCN(c2ccc(F)cc2F)CC1)c1cc2nc(-c3cccc(C#N)c3)nn2c(N)n1` gave a Ki in [1] of 1.8 nM. The Ratio in [2] was 620. Besides, the AUC in data set [3] worked out at 1300 ng·h/mL. For the same compound, the figures for the inhibition in vivo at 3 mg/kg in [4] and in data set [7] were 14% and 35%, respectively.

Regarding `Cc1nccnc1-c1nc2cc(N(C)CCN3CCN(c4ccc(F)cc4F)CC3)nc(N)n2n1`, the affinity in data set [1] corresponds to a Ki of 0.3 nM. The Ratio in data set [2] stood at 7370.

As for `COCCN(CCN1CCN(c2ccc(F)cc2F)CC1)c1cc2nc(-c3ccco3)nn2c(N)n1`, the Ki in [1] worked out at 0.5 nM. Further, the Ratio in data set [2] was found to be 1060. For the same compound, the inhibition in vivo at 3 mg/kg in data set [4] was determined as 57%; in data set [7], 56%.

Compound `COc1ccc(CN(C)c2cc3nc(-c4ccco4)nn3c(N)n2)cc1` registered a Ki in [1] of 46 nM. In data set [2], the Ratio was found to be 40.

`COCCN(CCc1ccc(F)cc1)c1cc2nc(-c3ccco3)nn2c(N)n1` registered a Ki in data set [1] of 1 nM. The Ratio in data set [2] was 566.

As for `COCCOc1ccc(N2CCN(CCNc3cc4nc(-c5ccco5)nn4c(N)n3)CC2)cc1`, the affinity in [1] corresponds to a Ki of 9.5 nM. Also, the Ratio in data set [2] stood at 145. The same compound returned an AUC in data set [3] of 103 ng·h/mL.

For `COCCOc1ccc(N2CCN(CCOc3cc4nc(-c5ccco5)nn4c(N)n3)CC2)cc1`, in data set [1], the Ki was found to be 2.8 nM. Further, the Ratio in data set [2] was 405. The compound further showed an exposure (AUC) in data set [3] of 943 ng·h/mL. Further, the inhibition in vivo at 1 mg/kg in [5] and in data set [6] was 25% throughout.

Regarding `Nc1nc2c(cnn2CCN2CCN(c3ccc(F)cc3F)CC2)c2nc(-c3ccco3)nn12`, the figures for the inhibition in vivo at 1 mg/kg in data set [5] and in [6] were 75% and 80%, respectively. Further, the Activity in [8] worked out at 75%.

The compound `CCN(CCN1CCN(c2ccc(F)cc2F)CC1)c1cc2nc(-c3ccco3)nn2c(N)n1` gave a Ki in data set [1] of 0.9 nM. In [2], the Ratio was 312. Also, in [3], the AUC was found to be 50 ng·h/mL.

Consider `CCN(CCN1CCN(c2ccc(OCCOC)cc2)CC1)c1cc2nc(-c3ccco3)nn2c(N)n1`, for which, in data set [1], the Ki is 1.5 nM. Also, in [2], the Ratio is 102. This compound came in with an AUC in data set [3] of 230 ng·h/mL.

In data set [1], `COc1ccc(CCOc2cc3nc(-c4ccco4)nn3c(N)n2)cc1` registered a Ki of 2.8 nM. For the same compound, in [2], the Ratio is 58.

For `COc1ccc(CCCc2cc3nc(-c4ccco4)nn3c(N)n2)cc1`, affinity in data set [1] was put at a Ki of 11.5 nM. In [2], the Ratio was determined as 31.

In the case of `COCCOc1ccc(N2CCN(CCn3ncc4c3nc(N)n3nc(-c5ccco5)nc43)CC2)cc1` [PRELADENANT], the inhibition in vivo at 1 mg/kg in data set [5] stood at 77%; in data set [6], 70%. Besides, the inhibition in vivo at 0.3 mg/kg in [9] and in [10] was 60% throughout. The inhibition in vivo at 0.1 mg/kg in data set [11] is 25%; in data set [12] it was 60%.

In [1], `COCCOc1ccc(N2CCN(CCN(C)c3cc4nc(-c5cccc(C#N)c5)nn4c(N)n3)CC2)cc1` had a Ki of 0.7 nM. The Ratio in [2] was found to be 1070. The same compound gave an area under the curve (AUC) in [3] of 546 ng·h/mL. The figures for the inhibition in vivo at 3 mg/kg in data set [4] and in [7] were 31% and 29%, respectively.

With `CN(CCc1ccc(F)cc1)c1cc2nc(-c3ccco3)nn2c(N)n1`, affinity in data set [1] was put at a Ki of 2 nM. Moreover, the Ratio in [2] came out at 248.

In data set [1], `CCN(CCc1ccc(F)cc1)c1cc2nc(-c3ccco3)nn2c(N)n1` returned a Ki of 3 nM. Besides, the Ratio in data set [2] stood at 525.

In data set [1], `Nc1nc(N(CCN2CCN(c3ccc(F)cc3F)CC2)CC2CC2)cc2nc(-c3ccco3)nn12` had a Ki of 0.3 nM. Also, the Ratio in data set [2] was 831. Moreover, the AUC in [3] was found to be 17 ng·h/mL. Moreover, the values for the inhibition in vivo at 3 mg/kg in data set [4] and in data set [7] were 41% and 65%, respectively. In addition, the inhibition in vivo at 1 mg/kg in [5] turned out to be 40%; in data set [6], 34%.

Take `COc1ccc(CCSc2cc3nc(-c4ccco4)nn3c(N)n2)cc1`: affinity in data set [1] was put at a Ki of 1.6 nM. Besides, the Ratio in [2] worked out at 58.

Consider `COCCOc1ccc(N2CCN(CCN(CCOC)c3cc4nc(-c5ccco5)nn4c(N)n3)CC2)cc1`, for which, in [1], the affinity, expressed as Ki, was 0.7 nM. Also, in data set [2], the Ratio turned out to be 338. In data set [3], this compound yielded an exposure (AUC) of 355 ng·h/mL. Further, the inhibition in vivo at 3 mg/kg in data set [4] turned out to be 37%; in [7], 57%. In addition, the figures for the inhibition in vivo at 1 mg/kg in [5] and in data set [6] were 29% and 6%, respectively.

In turn, `COc1ccc(CCCN(C)c2cc3nc(-c4ccco4)nn3c(N)n2)cc1` returned a Ki in data set [1] of 5.7 nM. In [2], the Ratio turned out to be 76.

`Nc1nc(SCCN2CCN(c3ccc(F)cc3F)CC2)cc2nc(-c3ccco3)nn12` registered a Ki in data set [1] of 1.4 nM. Also, the Ratio in data set [2] came to 365. For the same compound, in [3], the exposure (AUC) was determined as 229 ng·h/mL. The results for the inhibition in vivo at 3 mg/kg in data set [4] and in data set [7] were 45% and 50%, respectively. In addition, the inhibition in vivo at 1 mg/kg worked out at 50% in [5] and 5% in data set [6].

As for `CN(CCN1CCN(c2ccc(F)cc2F)CC1)c1cc2nc(-c3cnco3)nn2c(N)n1`, the Ki in data set [1] stood at 0.3 nM. Moreover, in data set [2], the Ratio was determined as 7000.

In data set [1], `Nc1nc(NCCN2CCN(c3ccc(F)cc3F)CC2)cc2nc(-c3ccco3)nn12` showed a Ki of 1.5 nM. For the same compound, in data set [2], the Ratio was found to be 262.

`Nc1nc(OCCN2CCN(c3ccc(F)cc3F)CC2)cc2nc(-c3ccco3)nn12` displayed an inhibition constant Ki in data set [1] of 6 nM. Further, in data set [2], the Ratio came out at 275. The compound also displayed an AUC in data set [3] of 187 ng·h/mL. Further, the inhibition in vivo at 3 mg/kg in data set [4] came to 0%; in data set [7], 25%. This compound yielded an inhibition in vivo at 1 mg/kg in data set [5] of 45%.

For `COCCOc1ccc(N2CCN(CCN(C)c3cc4nc(-c5ccco5)nn4c(N)n3)CC2)cc1`, in [1], the Ki is 2.5 nM. Further, in [2], the Ratio worked out at 694. Besides, the AUC in data set [3] worked out at 521 ng·h/mL. The results for the inhibition in vivo at 1 mg/kg in data set [5] and in [6] were 15% and 0%, respectively.

In the case of `COc1ccc(CCN(C)c2cc3nc(-c4ccco4)nn3c(N)n2)cc1`, in data set [1], the inhibition constant Ki worked out at 1.8 nM. The Ratio in [2] was 473.

In data set [1], `COCCOc1ccc(N2CCN(CCOc3cc4nc(-c5ccc(Cl)o5)nn4c(N)n3)CC2)cc1` showed a Ki of 40 nM. Also, in [2], the Ratio amounted to 40. Besides, the AUC in [3] was determined as 6 ng·h/mL.
